The values that follow come from article PMC11858516, “Promiscuity in Polyphenol–Protein Interactions—Monitoring Protein Conformational Change upon Polyphenol–Protein Binding by Nano-Differential Fluorimetry (Nano-DSF)” (Molecules, 2025).

SMILES strings stand for the structures.

Holding throughout (format): binding
Test [1] deals with T1, bovine serum albumin (BSA) (Bos taurus, UniProt P02769).
T1 construct: gene ALB
Description: nano-DSF F350/F330 titration, […] fit. The note with it: read-out: Ka [M^-1] (converted). Background: In DSF a fluorescence change marks the thermal transition of the protein.

In another test the target is T2, Casein.
T2 construct: gene CSN1S1
Description: nano-DSF F350/F330 titration, […] fit. The note with it: 37 °C, phosphate buffer pH 6.8, 1:1 stoichiometry assumed.

The next test deals with T3, Ovalbumin (OVA) (Gallus gallus, UniProt P01012).
T3 construct: gene SERPINB14
T3 sequence (P01012 2-386): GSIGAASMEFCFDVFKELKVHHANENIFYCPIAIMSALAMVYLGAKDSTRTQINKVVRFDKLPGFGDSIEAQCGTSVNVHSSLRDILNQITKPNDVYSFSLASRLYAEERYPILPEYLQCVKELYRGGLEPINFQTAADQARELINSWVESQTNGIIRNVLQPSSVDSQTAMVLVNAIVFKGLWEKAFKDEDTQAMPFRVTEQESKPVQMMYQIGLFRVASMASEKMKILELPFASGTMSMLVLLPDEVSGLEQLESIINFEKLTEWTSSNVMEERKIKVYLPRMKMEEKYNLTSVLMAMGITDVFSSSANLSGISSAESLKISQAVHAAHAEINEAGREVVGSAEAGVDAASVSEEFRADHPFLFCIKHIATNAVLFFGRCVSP
The test is described as follows: nano-DSF F350/F330 ratio. The note with it: 1000 µM; phosphate buffer pH 6.8; 5 µM protein. The text has this:
nano-DSF F350/F330 ratio on Ovalbumin (OVA)

Test [2] deals with T1, bovine serum albumin (BSA). The test is described as follows: nano-DSF F350/F330 ratio. The note with it: 1000 µM; phosphate buffer pH 6.8; 5 µM protein. The text has this: nano-DSF F350/F330 ratio on bovine serum albumin (BSA)

T1 sequence (P02769 25-607): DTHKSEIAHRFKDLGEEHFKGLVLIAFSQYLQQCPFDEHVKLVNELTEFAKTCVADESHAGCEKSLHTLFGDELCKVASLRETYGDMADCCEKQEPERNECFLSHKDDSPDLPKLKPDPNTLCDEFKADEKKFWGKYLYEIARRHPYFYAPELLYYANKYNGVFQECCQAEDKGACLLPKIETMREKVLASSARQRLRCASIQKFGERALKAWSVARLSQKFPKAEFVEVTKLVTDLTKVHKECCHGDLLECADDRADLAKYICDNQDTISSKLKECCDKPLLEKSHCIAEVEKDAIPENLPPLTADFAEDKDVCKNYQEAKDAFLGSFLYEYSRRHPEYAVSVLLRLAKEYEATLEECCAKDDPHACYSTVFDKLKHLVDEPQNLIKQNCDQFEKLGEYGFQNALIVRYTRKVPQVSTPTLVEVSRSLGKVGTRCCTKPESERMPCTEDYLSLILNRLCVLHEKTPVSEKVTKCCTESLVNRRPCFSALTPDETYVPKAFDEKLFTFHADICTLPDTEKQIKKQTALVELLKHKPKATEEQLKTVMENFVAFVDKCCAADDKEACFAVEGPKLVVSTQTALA

As for `O=C(/C=C/c1ccc(O)c(O)c1)O[C@H]1[C@H](O)C[C@](O)(C(=O)O)C[C@H]1OC(=O)/C=C/c1ccc(O)c(O)c1` [3,4-diCQA], in test [1], the Kd is 18 µM. Besides, the “Ka [M^-1]” value on Casein is recorded as 41 271.

As to `O=C(/C=C/c1ccc(O)c(O)c1)O[C@@H]1C[C@](O)(C(=O)O)C[C@@H](O)[C@H]1O` [5-CQA], the F350/F330 fluorescence ratio on Ovalbumin (OVA) is given as 1.02. Further, the “Ka [M^-1]” value on Casein is given as 21 450.

Consider `O=C(O[C@@H]1Cc2c(O)cc(O)cc2O[C@@H]1c1cc(O)c(O)c(O)c1)c1cc(O)c(O)c(O)c1` [EGCG], for which the values for the F350/F330 fluorescence ratio (on Ovalbumin (OVA); in test [2]) were 1.25 and 1.57, respectively.

With `Oc1cc(O)c2c(c1)O[C@H](c1ccc(O)c(O)c1)[C@H](O)C2` [Epicatechin], the “Ka” value on Casein (µM column is the reciprocal of Ka, the M^-1 cell is misprinted (7 1616)) was 139.6 µM.

As for `O=C(OC[C@H]1O[C@H](OC(=O)c2cc(O)c(O)c(O)c2)[C@H](OC(=O)c2cc(O)c(O)c(O)c2)[C@@H](OC(=O)c2cc(O)c(O)c(O)c2)[C@@H]1OC(=O)c1cc(O)c(O)c(O)c1)c1cc(O)c(O)c(O)c1` [α-PGG], the Kd in test [1] is 89.3 µM.

As to `O=C(OC[C@H]1O[C@@H](OC(=O)c2cc(O)c(O)c(O)c2)[C@H](OC(=O)c2cc(O)c(O)c(O)c2)[C@@H](OC(=O)c2cc(O)c(O)c(O)c2)[C@@H]1OC(=O)c1cc(O)c(O)c(O)c1)c1cc(O)c(O)c(O)c1` [β-PGG], in test [1], the Kd was 118 µM.
